The test system of assay [1] is juvenile hippocampal slices (P13-21). The assay is described as follows: Primed burst stimulation: conversion of STP into persistent increase in synaptic transmission (fEPSP). The assay is classed as cell-based, Sprague Dawley rats. Conditions: 50 nM, at 40 min. The protocol:
Parasagittal hippocampal slices (300 μm) were prepared from either P13-21 or 12-24-week-old male Sprague Dawley rats as previously (Moult et al. 2010). Brains were rapidly removed and placed in ice-cold artificial CSF (aCSF; bubbled with 95% O2 and 5% CO2) containing the following (in mm): 124 NaCl, 3 KCl, 26 NaHCO3, 1.25 NaH2PO4, 2 CaCl2, 1 MgSO4, and 10 d-glucose. Once prepared, parasagittal slices were allowed to recover at room temperature in oxygenated aCSF for 1 h before use. Slices were transferred to a submerged chamber maintained at room temperature and perfused with artificial cerebrospinal fluid at 2 ml min^−1. Standard extracellular recordings were used to monitor evoked field excitatory postsynaptic potentials (fEPSP) from stratum radiatum. The Schaffer collateral-commissural pathway was stimulated (constant voltage; 0.1 ms) at 0.033 Hz, using a stimulus intensity that evoked a peak amplitude ˜50% of the maximum. Synaptic potentials were low pass filtered at 2 kHz and digitally sampled at 10 kHz. The fEPSP slope was measured and expressed relative to baseline. Synaptic records are the average of 4 consecutive responses and stimulus artefacts are blanked for clarity. Recordings were made using an Axopatch 200B amplifier and analyzed using LTP v2.4 software. In synaptic plasticity studies, the degree of potentiation was calculated 30-35 min after HFS and expressed as a percentage of baseline±standard error of mean (SEM).
It is known that NMDA receptors contribute little to basal excitatory synaptic transmission but synaptic activation of NMDA receptors is crucial for LTP induction at hippocampal synapses (Bliss and Collingridge 1993). Previous studies indicate that lep-tin enhances the magnitude of activity-dependent LTP in acute hippocampal slices (Oomura et al. 2006) and following direct administration into the hippocampus in vivo (Wayner et al. 2004). We have also shown that leptin facilitates NMDA receptor-dependent synaptic plasticity as leptin promotes conversion of short term potentiation (STP) to hippocampal LTP (Shanley et al. 2001). […]

The test system of the next assay is mice. Briefly: Murine episodic-like memory test with hexamers. The class given is in vivo. As to conditions: IP 7.8 nM/ml; tested 45 minutes post-injection; vs saline. The protocol: FIG. 24. Bar chart of the quantification of the fluorescent signal per cell following thioflavin S staining of neuronal cultures 96 hours after seeding with 1 μM Amyloid (Ab1-42). Cultures were established in triplicate on 3 separate occasions and statistical significance relative to control untreated cultures is denoted by *** where P<0.001 (A). […] 3 groups of mice (n=8 per group) were IP injected with saline (control) on 7.8 nM/ml leptin116-121 or […]. Memory performance was tested 45 minutes post-injection. Statistical significance relative to saline-injected animals is denoted by * where P<0.05. […] Leptin levels were determined by ELISA, using a commercially-supplied kit (Sigma, UK) and using blood serum harvested 24 hours post injection.
Further to this we have evaluated the effects of these hexamer peptides on episodic memory in mice. There is an 8 fold increase in episodic memory performance following treatment with leptin116-121 or […] (FIG. 24B). This implies that both leptin hexamers enhance the ability of the mice to recognise the presence of a novel object within the test arena.

The test system of the next assay is C57/BL6 mice. Briefly: Object-place-context (OPC) recognition task, episodic-like memory. The assay is classed as in vivo. As to conditions: 100 μl IP of 7.8 nM/ml 30 min prior to testing. The procedure:
FIG. 7A, FIG. 7B, FIG. 7C and FIG. 7D show Leptin (116-130) enhances episodic-like memory. FIG. 7A: object-place-context task used to assess episodic-like memory. There are 2 sample phases in which mice are exposed to different copies of 2 different objects (star and hexagon) and allowed to explore for 3 min. In the test phase they see 2 new copies of 1 of the objects. The arrow points to the object that has not been previously seen in that place within that context. FIG. 7B: mean±SEM discrimination index for the 3 groups. *P<0.05. FIG. 7C: total exploration time in the test phase is not different between groups. FIG. 7D: exploration of the novel and familiar objects in the test phase; treatment with leptin or the leptin fragment (116-130) enhanced performance on the episodic-like memory test.
To further assess its therapeutic potential we next asked if this fragment has similar cognitive enhancing properties to the whole leptin molecule. Previous studies indicate that leptin enhances hippocampal-dependent memory (Oomura et al. 2006; Farr et al. 2006), whereas resistance to lep-tin results in impaired spatial memory (Li et al. 2002). We used the object-place-context (OPC) recognition task which models human episodic memory, the first cognitive process to be compromised in the early stages of AD (Swainson et al. 2001). […]

Turning to “leptin (22-56): leptin fragment amino acids 22-56 (Bachem), comparison fragment (VPIQKVQDDTKTLIKTIVTRINDISHTQSVSSKQK; UniProt P41159 22-56, looked up, fragment) [reference compound]”, the “synaptic transmission after primed burst stimulation” value in assay [1] is “only STP was observed”.
Take “CSLPQT (listed as Mus musculus) [leptin (117-122)]”: the “increase in episodic memory performance” value in the assay on mice worked out at 8 fold.
Consider “leptin: the metabolic hormone leptin, whole (full length) leptin molecule; human leptin from Sigma in SH-SY5Y work”, for which the “synaptic transmission after primed burst stimulation” value in assay [1] is 155±6.1 % of baseline. Also, the “performance (discrimination index) in episodic-like OPC task” value in the assay on C57/BL6 mice is “enhanced performance on the task relative to the control group”.
For “SCSLPQTSGLQKPES (listed as Mus musculus) [leptin (116-130)]” the same measures were 143±6.4 % of baseline and “enhanced performance on the task relative to the control group”.
Consider “SCSLPQ (listed as Mus musculus) [leptin (116-121)]”, for which the “increase in episodic memory performance” value in the assay on mice amounted to 8 fold.

Source of the values: patent US20200255492A1, “LEPTIN PEPTIDES AND THEIR USE FOR TREATING NEUROLOGICAL DISORDERS” (UNIVERSITY OF DUNDEE, priority 2017, published 2020).
